From ChEMBL document CHEMBL1212745, “Structure of the heme biosynthetic Pseudomonas aeruginosa porphobilinogen synthase in complex with the antibiotic alaremycin” (Antimicrob Agents Chemother, 2010)
In brackets after ≈: the same amount, converted by molar mass. Activity calls are given as the source filed them. The calls are words filed in the database; no cut-off is given here.

Assays:
[1] = tested on: Pseudomonas aeruginosa PAO1; test: Inhibition of Pseudomonas aeruginosa PAO1 porphobilinogen synthase assessed as enzyme activity at 5 mM relative to control; parameters: scale not given: the % may be the effect or the level left
[2] = tested on: Escherichia coli; test: Antimicrobial activity against Escherichia coli DH10B up to 24 hrs by microdilution method; assay type: functional; conditions: K-12 DH10B
[3] = Inhibition of Methanosarcina barkeri porphobilinogen synthase by Lineweaver-Burke plot analysis
[4] = tested on: Escherichia coli; test: Antimicrobial activity against Escherichia coli CSA1 at =< 40 mg/ml up to 24 hrs by microdilution method in presence of heme and absence of 5-aminolaevulinic acid; assay type: functional, organism-based
[5] = tested on: Pseudomonas aeruginosa PAO1; test: Activity at Pseudomonas aeruginosa PAO1 porphobilinogen synthase
[6] = Antimicrobial activity against Streptomyces sp. A012304 up to 24 hrs by microdilution method; assay type: functional; conditions: Streptomyces sp. A012304, 24 h
[7] = tested on: Pseudomonas aeruginosa PAO1; test: Ratio of Kcat to Km for Pseudomonas aeruginosa PAO1 porphobilinogen synthase
[8] = tested on: Streptomyces sp. A012304; test: Inhibition of Streptomyces sp. A012304 porphobilinogen synthase assessed as enzyme activity at 5 mM relative to control; parameters: scale not given: the % may be the effect or the level left
[9] = tested on: Escherichia coli str. K-12 substr. DH10B; test: Inhibition of Escherichia coli porphobilinogen synthase assessed as enzyme activity at 5 mM relative to control; parameters: scale not given: the % may be the effect or the level left
[10] = biological target: T1, Delta-aminolevulinic acid dehydratase (Streptomyces avermitilis) (UniProt Q82E74); test: Inhibition of Streptomyces avermitilis DSM 46492 porphobilinogen synthase assessed as enzyme activity at 5 mM relative to control; parameters: scale not given: the % may be the effect or the level left
T1 sequence (whole entry): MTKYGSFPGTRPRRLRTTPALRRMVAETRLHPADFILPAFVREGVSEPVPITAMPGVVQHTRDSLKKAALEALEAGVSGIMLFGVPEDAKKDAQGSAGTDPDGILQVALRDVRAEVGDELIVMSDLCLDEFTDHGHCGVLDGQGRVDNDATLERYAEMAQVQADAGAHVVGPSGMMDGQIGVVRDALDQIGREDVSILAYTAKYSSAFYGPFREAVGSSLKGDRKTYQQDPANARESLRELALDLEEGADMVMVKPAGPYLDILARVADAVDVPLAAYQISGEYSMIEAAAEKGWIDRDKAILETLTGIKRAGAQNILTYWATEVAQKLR

[11] = Inhibition of Methanosarcina barkeri porphobilinogen synthase after 60 mins by spectrophotometry
[12] = biological target: T2, Delta-aminolevulinic acid dehydratase (Bacillus subtilis) (UniProt P30950); test: Inhibition of Bacillus subtilis JH642 porphobilinogen synthase assessed as enzyme activity at 5 mM relative to control; parameters: scale not given: the % may be the effect or the level left
T2 sequence (whole entry): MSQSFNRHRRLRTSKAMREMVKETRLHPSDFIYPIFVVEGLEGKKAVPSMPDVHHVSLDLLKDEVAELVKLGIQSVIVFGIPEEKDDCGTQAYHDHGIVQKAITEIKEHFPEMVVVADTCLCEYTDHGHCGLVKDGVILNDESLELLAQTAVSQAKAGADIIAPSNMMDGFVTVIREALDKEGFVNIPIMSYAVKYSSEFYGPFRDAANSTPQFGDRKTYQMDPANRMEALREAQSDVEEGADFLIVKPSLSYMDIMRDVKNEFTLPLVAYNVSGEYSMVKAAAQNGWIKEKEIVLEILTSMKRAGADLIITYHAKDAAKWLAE

[13] = biological target: T1, Delta-aminolevulinic acid dehydratase (Streptomyces avermitilis); test: Inhibition of Streptomyces avermitilis DSM 46492 porphobilinogen synthase assessed as enzyme activity at 10 mM relative to control; parameters: scale not given: the % may be the effect or the level left
[14] = biological target: T3, Delta-aminolevulinic acid dehydratase (Streptomyces coelicolor) (UniProt P54919); test: Inhibition of Streptomyces coelicolor DMS 40233 porphobilinogen synthase assessed as enzyme activity at 10 mM relative to control; parameters: scale not given: the % may be the effect or the level left
T3 sequence (whole entry): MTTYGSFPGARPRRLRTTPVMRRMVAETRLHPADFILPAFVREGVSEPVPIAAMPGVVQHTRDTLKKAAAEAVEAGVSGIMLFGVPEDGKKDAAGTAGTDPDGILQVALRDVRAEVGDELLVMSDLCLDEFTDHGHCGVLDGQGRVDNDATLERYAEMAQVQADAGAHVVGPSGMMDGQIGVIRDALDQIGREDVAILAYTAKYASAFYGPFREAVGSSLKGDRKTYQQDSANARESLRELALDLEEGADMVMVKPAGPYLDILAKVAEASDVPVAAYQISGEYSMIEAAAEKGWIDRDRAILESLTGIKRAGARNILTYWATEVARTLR

[15] = biological target: T3, Delta-aminolevulinic acid dehydratase (Streptomyces coelicolor); test: Inhibition of Streptomyces coelicolor DMS 40233 porphobilinogen synthase assessed as enzyme activity at 5 mM relative to control; parameters: scale not given: the % may be the effect or the level left
[16] = tested on: Bacillus megaterium DSM 319; test: Inhibition of Bacillus megaterium DSM319 porphobilinogen synthase assessed as enzyme activity at 10 mM relative to control; parameters: scale not given: the % may be the effect or the level left
[17] = tested on: Escherichia coli; test: Antimicrobial activity against Escherichia coli CSA1 up to 24 hrs by microdilution method; assay type: functional; conditions: CSA1, 24 h
[18] = tested on: Streptomyces avermitilis; test: Antimicrobial activity against Streptomyces avermitilis DSM 46492 up to 24 hrs by microdilution method; assay type: functional; conditions: DSM 46492, 24 h
[19] = biological target: T2, Delta-aminolevulinic acid dehydratase (Bacillus subtilis); test: Inhibition of Bacillus subtilis JH642 porphobilinogen synthase assessed as enzyme activity at 10 mM relative to control; parameters: scale not given: the % may be the effect or the level left
[20] = tested on: Streptomyces sp. A012304; test: Inhibition of Streptomyces sp. A012304 porphobilinogen synthase assessed as enzyme activity at 10 mM relative to control; parameters: scale not given: the % may be the effect or the level left
[21] = tested on: Escherichia coli; test: Inhibition of Escherichia coli CSA1 porphobilinogen synthase assessed as enzyme activity at 10 mM relative to control; parameters: scale not given: the % may be the effect or the level left
[22] = tested on: Escherichia coli; test: Antimicrobial activity against Escherichia coli CSA1 at =< 40 mg/ml up to 24 hrs by microdilution method in presence of 5-aminolaevulinic acid and heme; assay type: functional, organism-based
[23] = tested on: Pseudomonas aeruginosa; test: Antimicrobial activity against Pseudomonas aeruginosa PAO1 up to 24 hrs by microdilution method; assay type: functional; conditions: PAO1, 24 h
[24] = tested on: Escherichia coli; test: Inhibition of Escherichia coli CSA1 porphobilinogen synthase assessed as enzyme activity at 5 mM relative to control; parameters: scale not given: the % may be the effect or the level left
[25] = tested on: Methanosarcina barkeri; test: Ratio of Kcat to Km for Methanosarcina barkeri porphobilinogen synthase
[26] = tested on: Priestia megaterium; test: Antimicrobial activity against Bacillus megaterium DSM319 up to 24 hrs by microdilution method; assay type: functional; conditions: DSM 319, 24 h
[27] = tested on: Escherichia coli; test: Antimicrobial activity against Escherichia coli CSA1 at =< 40 mg/ml up to 24 hrs by microdilution method in absence of 5-aminolaevulinic acid; assay type: functional, organism-based
[28] = tested on: Bacillus subtilis; test: Antimicrobial activity against Bacillus subtilis JH642 up to 24 hrs by microdilution method; assay type: functional; conditions: JH642, 24 h
[29] = tested on: Escherichia coli str. K-12 substr. DH10B; test: Inhibition of Escherichia coli porphobilinogen synthase assessed as enzyme activity at 10 mM relative to control; parameters: scale not given: the % may be the effect or the level left
[30] = tested on: Escherichia coli; test: Antimicrobial activity against Escherichia coli CSA1 at =< 40 mg/ml up to 24 hrs by microdilution method in presence of 5-aminolaevulinic acid; assay type: functional, organism-based
[31] = Inhibition of Pseudomonas aeruginosa PAO1 porphobilinogen synthase by Lineweaver-Burke plot analysis
[32] = tested on: Streptomyces coelicolor; test: Antimicrobial activity against Streptomyces coelicolor DMS 40233 up to 24 hrs by microdilution method; assay type: functional; conditions: DMS 40233, 24 h
[33] = tested on: Bacillus megaterium DSM 319; test: Inhibition of Bacillus megaterium DSM319 porphobilinogen synthase assessed as enzyme activity at 5 mM relative to control; parameters: scale not given: the % may be the effect or the level left
[34] = tested on: Pseudomonas aeruginosa PAO1; test: Inhibition of Pseudomonas aeruginosa PAO1 porphobilinogen synthase assessed as enzyme activity at 10 mM relative to control; parameters: scale not given: the % may be the effect or the level left
[35] = Inhibition of Pseudomonas aeruginosa PAO1 porphobilinogen synthase after 60 mins by spectrophotometry
[36] = tested on: Methanosarcina barkeri; test: Activity at Methanosarcina barkeri porphobilinogen synthase

Question: What does the source list for `C=C(NC(C)=O)C(=O)CCC(=O)O` [ALAREMYCIN]?
Answer: Activity [1]: 92%; MIC [2]: 4 mM (≈ 741 µg/mL); Ki [3]: 1510 µM; Activity [4]: inactive; Km [5]: 0.32 mM; kcat [5]: 16.1 s⁻¹; MIC [6]: > 20 mM; kcat/Km [7]: 50300 M⁻¹ s⁻¹; Activity [8]: 90%; Activity [9]: 30%; Activity [10]: 68%; IC50 [11]: 2200 µM; Activity [12]: 61%; Activity [13]: < 1%; Activity [14]: 22%; Activity [15]: 77%; Activity [16]: < 1%; MIC [17]: 10 mM (≈ 1850 µg/mL); MIC [18]: 8 mM (≈ 1480 µg/mL); Activity [19]: 30%; Activity [20]: 79%; Activity [21]: < 1%; Activity [22]: inactive; MIC [23]: 12 mM (≈ 2220 µg/mL); Activity [24]: 36%; kcat/Km [25]: 170 M⁻¹ s⁻¹; MIC [26]: 4 mM (≈ 741 µg/mL); Activity [27]: Active; MIC [28]: 14 mM (≈ 2590 µg/mL); Activity [29]: < 1%; Activity [30]: Active; Ki [31]: 1330 µM; MIC [32]: 8 mM (≈ 1480 µg/mL); Activity [33]: 3%; Activity [34]: 25%; IC50 [35]: 2100 µM; Km [36]: 0.07 mM; kcat [36]: 0.012 s⁻¹
